According to US20080319000A1, “Use of 3,1IB-Cis-Dihydrotetrabenazine for the Treatment of Symptoms of Huntingtons Disease” (CAMBRIDGE LABORATORIES (IRELAND) LIMITED, priority 2005, published 2008):

How the values were obtained:
[1] = tested on: B6CBA-Tg(HDexon1)62Gpb/1J transgenic (R6/2) mice; assay: Simplified Irwin test in transgenic mice model of Huntington's disease; format: in vivo
Description: B6CBA-Tg(HDexon1)62Gpb/1J transgenic (R6/2) mice are transgenic for the 5-end of the human HD gene carrying (CAG) 115-(CAG) 150 repeat expansions. […] These symptoms appear between 6 and 8 weeks of age. […] Female B6CBa-Tg(HDexon1)62Gpb/1J transgenic mice (Jackson Laboratory, USA) were housed 5 per cage in an enriched environment under a light-dark cycle of 12 h-12 h (light on at 7.00 am, off at 7.00 pm) at a room temperature of 21±2° C., with 50±15% humidity. The mice had access to commercial mouse chow (mouse/rate breeding, ref. 9341 Provimi Kliba, Switzerland) and tap water. […] Two hours before the observations, animals were placed in individual cages. Measurements were first carried out in the individual cages. The animal's convulsions, tremors-twitches, stereotypies and vocalizations were recorded. The animal was then placed in a 58.5×68.5 cm open field with a 6 cm rim and observed for approximately 3 minutes. Gait characteristics were ranked. The presence of convulsions or tremors-twitches and stereotypies was again noted. At the end of the 3 minutes, the number of faecal boluses and pools of urine was recorded. The mice were then returned to their individual cages after testing. Group 1: hemizygote Transgenic B6CBA-Tg(HDexon 1)62Gpb/1J mice treated with vehicle i.p. once a day for 4 days (from day 0 to day 3) Group 2: hemizygote Transgenic B6CBA-Tg(HDexon 1)62Gpb/1J mice treated with 5 mg/kg i.p. of test item once a day for 4 days (from day 0 to day 3) […] • Test item administration • Simplified Irwin test, 40 minutes after administration • Rotarod test, immediately after the simplified Irwin test • Test item administration • Simplified Irwin test, 40 min after administration • Rotarod test, immediately after simplified #Irwin test • Test item administration • Simplified Irwin test, 40 min after administration • Locomotor activity test, immediately after the simplified Irwin test Simplified Irwin scores were analysed using non-parametric Mann-Whitney's U test. Locomotor activity data were analysed using Dunnett's t-test. Rotarod scores were analysed using the non-parametric Mann-Whitney's U-test. Statistical analyses were performed using the software Statview SE^+graphics software, Brain Power.

[2] = target: serotonin transporter protein SERT (Homo sapiens, UniProt P31645); assay: Serotonin transporter SERT inhibition; format: binding
[3] = home cage, Day 0 after administration, 5 mg/kg i.p. once a day Day 0-3
[4] = home cage, Day 0 before administration, 5 mg/kg i.p. once a day Day 0-3
[5] = home cage, Day 1, 5 mg/kg i.p. once a day Day 0-3
[6] = home cage, Day 2, 5 mg/kg i.p. once a day Day 0-3
[7] = home cage, Day 3, 5 mg/kg i.p. once a day Day 0-3
[8] = open field, Day 0 after administration, 5 mg/kg i.p. once a day Day 0-3
[9] = open field, Day 0 before administration, 5 mg/kg i.p. once a day Day 0-3
[10] = open field, Day 1, 5 mg/kg i.p. once a day Day 0-3
[11] = open field, Day 2, 5 mg/kg i.p. once a day Day 0-3
[12] = open field, Day 3, 5 mg/kg i.p. once a day Day 0-3
[13] = open field, Day 17, 5 mg/kg i.p. once a day Day 0-3
[14] = open field, Day 21, 5 mg/kg i.p. once a day Day 0-3
[15] = open field, Day 24, 5 mg/kg i.p. once a day Day 0-3
[16] = open field, Day 27, 5 mg/kg i.p. once a day Day 0-3
[17] = open field, Day 31, 5 mg/kg i.p. once a day Day 0-3
[18] = period of 17 to 24 days after administration

Sequence of serotonin transporter protein SERT (P31645 whole entry): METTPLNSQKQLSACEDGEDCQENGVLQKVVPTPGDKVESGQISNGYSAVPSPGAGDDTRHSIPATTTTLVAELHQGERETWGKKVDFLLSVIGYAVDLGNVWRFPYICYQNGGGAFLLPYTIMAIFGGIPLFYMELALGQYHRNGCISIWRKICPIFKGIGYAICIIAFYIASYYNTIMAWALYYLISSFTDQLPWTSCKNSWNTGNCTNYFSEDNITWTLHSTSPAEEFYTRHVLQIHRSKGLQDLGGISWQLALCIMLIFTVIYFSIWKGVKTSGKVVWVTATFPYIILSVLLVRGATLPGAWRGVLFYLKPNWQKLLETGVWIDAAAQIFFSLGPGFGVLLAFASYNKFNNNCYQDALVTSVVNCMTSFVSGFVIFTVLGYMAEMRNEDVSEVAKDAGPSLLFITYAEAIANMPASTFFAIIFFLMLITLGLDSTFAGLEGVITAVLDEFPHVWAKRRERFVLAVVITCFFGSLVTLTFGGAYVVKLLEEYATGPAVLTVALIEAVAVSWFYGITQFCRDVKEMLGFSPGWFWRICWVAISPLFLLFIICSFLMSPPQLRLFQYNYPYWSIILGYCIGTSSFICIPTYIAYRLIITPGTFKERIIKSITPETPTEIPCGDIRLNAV

With `COc1cc2c(cc1OC)[C@H]1C[C@H](O)[C@@H](CC(C)C)CN1CC2` (single isomer, unassigned) [Isomer B] the “incidences of involuntary movements such as involuntary chorea, tremors and twitches” value ([1]; after 21 days versus prior to administration) was “no worse after 21 days than they had been prior to administration”, the Convulsions [1, 3] was 0.13 and the “Grooming” value [1, 3] was 7.38 s. The Stereotypies [1, 3] was “— (Sign never observed (equivalent to 0.00 ± 0.00))”, the Tremors-Twitches [1, 3] was 1.13 and the Vocalization [1, 3] was “— (Sign never observed (equivalent to 0.00 ± 0.00))”. The Convulsions [1, 4] was 0.22, the “Grooming” value [1, 4] was 10.00 s and the Stereotypies [1, 4] was “— (Sign never observed (equivalent to 0.00 ± 0.00))”. The Tremors-Twitches [1, 4] was 1.44, the Vocalization [1, 4] was “— (Sign never observed (equivalent to 0.00 ± 0.00))” and the Convulsions [1, 5] was “— (Sign never observed (equivalent to 0.00 ± 0.00))”. For the same compound, the “Grooming (sec)” value [1, 5] was “— (Sign never observed (equivalent to 0.00 ± 0.00))”, the Stereotypies [1, 5] was “— (Sign never observed (equivalent to 0.00 ± 0.00))” and the Tremors-Twitches [1, 5] was 1.00. For the same compound, the Vocalization [1, 5] was “— (Sign never observed (equivalent to 0.00 ± 0.00))”, the Convulsions [1, 6] was “— (Sign never observed (equivalent to 0.00 ± 0.00))” and the “Grooming” value [1, 6] was 7.78 s. For the same compound, the Stereotypies [1, 6] was “— (Sign never observed (equivalent to 0.00 ± 0.00))”, the Tremors-Twitches [1, 6] was 0.78 and the Vocalization [1, 6] was “— (Sign never observed (equivalent to 0.00 ± 0.00))”. The Convulsions [1, 7] was 0.11, the “Grooming” value [1, 7] was 4.22 s and the Stereotypies [1, 7] was “— (Sign never observed (equivalent to 0.00 ± 0.00))”. For the same compound, the Tremors-Twitches [1, 7] was 1.00, the Vocalization [1, 7] was “— (Sign never observed (equivalent to 0.00 ± 0.00))” and the Convulsions [1, 8] was 0.67. The “Defecation (N° of boluses)” value [1, 8] was 1.44 N° of boluses, the Gait [1, 8] was 0.33 and the “Grooming” value [1, 8] was 3.11 s. For the same compound, the Stereotypies [1, 8] was 0.11, the Tremors-Twitches [1, 8] was 1.89 and the “Urination (N° of pools)” value [1, 8] was 0.44 N° of pools. The Vocalisation [1, 8] was 0.22, the Convulsions [1, 9] was “— (Sign never observed (equivalent to 0.00 ± 0.00))” and the “Defecation (N° of boluses)” value [1, 9] was 2.56 N° of boluses. The Gait [1, 9] was 1.11, the “Grooming” value [1, 9] was 19.44 s and the Stereotypies [1, 9] was “— (Sign never observed (equivalent to 0.00 ± 0.00))”. For the same compound, the Tremors-Twitches [1, 9] was 2.11, the “Urination (N° of pools)” value [1, 9] was 0.67 N° of pools and the Vocalisation [1, 9] was 0.44. The Convulsions [1, 10] was 0.11, the “Defecation (N° of boluses)” value [1, 10] was 0.89 N° of boluses and the Gait [1, 10] was 1.00. The “Grooming” value [1, 10] was 7.78 s, the Stereotypies [1, 10] was “— (Sign never observed (equivalent to 0.00 ± 0.00))” and the Tremors-Twitches [1, 10] was 2.33. The “Urination (N° of pools)” value [1, 10] was 0.11 N° of pools, the Vocalisation [1, 10] was 0.67 and the Convulsions [1, 11] was “— (Sign never observed (equivalent to 0.00 ± 0.00))”. For the same compound, the “Defecation (N° of boluses)” value [1, 11] was 1.22 N° of boluses, the Gait [1, 11] was 0.67 and the “Grooming” value [1, 11] was 20.56 s. The Stereotypies [1, 11] was “— (Sign never observed (equivalent to 0.00 ± 0.00))”, the Tremors-Twitches [1, 11] was 2.00 and the “Urination (N° of pools)” value [1, 11] was 0.33 N° of pools. For the same compound, the Vocalisation [1, 11] was 0.89, the Convulsions [1, 12] was “— (Sign never observed (equivalent to 0.00 ± 0.00))” and the “Defecation (N° of boluses)” value [1, 12] was 1.33 N° of boluses. For the same compound, the Gait [1, 12] was 2.33, the “Grooming” value [1, 12] was 12.67 s and the Stereotypies [1, 12] was “— (Sign never observed (equivalent to 0.00 ± 0.00))”. The Tremors-Twitches [1, 12] was 1.78, the “Urination (N° of pools)” value [1, 12] was 0.11 N° of pools and the Vocalisation [1, 12] was 0.89. The Convulsions [1, 13] was 0.67, the “Defecation (N° of boluses)” value [1, 13] was 2.67 N° of boluses and the Gait [1, 13] was 1.56. The “Grooming” value [1, 13] was 20.33 s, the Stereotypies [1, 13] was “— (Sign never observed (equivalent to 0.00 ± 0.00))” and the Tremors-Twitches [1, 13] was 1.44. The “Urination (N° of pools)” value [1, 13] was 0.22 N° of pools, the Vocalisation [1, 13] was 0.22 and the Convulsions [1, 14] was “— (Sign never observed (equivalent to 0.00 ± 0.00))”. The “Defecation (N° of boluses)” value [1, 14] was 2.44 N° of boluses, the Gait [1, 14] was 1.67 and the “Grooming” value [1, 14] was 17.67 s. The Stereotypies [1, 14] was “— (Sign never observed (equivalent to 0.00 ± 0.00))”, the Tremors-Twitches [1, 14] was 1.67 and the “Urination (N° of pools)” value [1, 14] was 0.11 N° of pools. For the same compound, the Vocalisation [1, 14] was 0.44, the Convulsions [1, 15] was “— (Sign never observed (equivalent to 0.00 ± 0.00))” and the “Defecation (N° of boluses)” value [1, 15] was 1.33 N° of boluses. The Gait [1, 15] was 2.17, the “Grooming” value [1, 15] was 18.22 s and the Stereotypies [1, 15] was “— (Sign never observed (equivalent to 0.00 ± 0.00))”. For the same compound, the Tremors-Twitches [1, 15] was 2.44, the “Urination (N° of pools)” value [1, 15] was 0.33 N° of pools and the Vocalisation [1, 15] was 0.44. For the same compound, the Convulsions [1, 16] was “— (Sign never observed (equivalent to 0.00 ± 0.00))”, the “Defecation (N° of boluses)” value [1, 16] was 2.33 N° of boluses and the Gait [1, 16] was 2.56. For the same compound, the “Grooming” value [1, 16] was 25.33 s, the Stereotypies [1, 16] was “— (Sign never observed (equivalent to 0.00 ± 0.00))” and the Tremors-Twitches [1, 16] was 2.11. The “Urination (N° of pools)” value [1, 16] was 0.44 N° of pools, the Vocalisation [1, 16] was 0.00 and the Convulsions [1, 17] was “— (Sign never observed (equivalent to 0.00 ± 0.00))”. The “Defecation (N° of boluses)” value [1, 17] was 1.44 N° of boluses, the Gait [1, 17] was 2.33 and the “Grooming” value [1, 17] was 19.11 s. The Stereotypies [1, 17] was “— (Sign never observed (equivalent to 0.00 ± 0.00))”, the Tremors-Twitches [1, 17] was 2.67 and the “Urination (N° of pools)” value [1, 17] was 0.11 N° of pools. For the same compound, the Vocalisation [1, 17] was 0.22, the “deterioration (progression of symptoms) versus control mice” value [1, 18] was “significantly less deterioration than the control mice” and the deterioration in gait [1, 18] was “substantially arrested or slowed”. For the same compound, the “progression of symptoms of Huntington's disease (involuntary movements, deterioration in gait)” value ([1]; transgenic mouse model of Huntington's disease) was “shown to arrest the progression of a number of symptoms of Huntington's disease” and the “inhibition of the serotonin transporter protein SERT” value [2] was “potent inhibitors”.
